{"source": "patent US11129871B1", "about": "“Compositions and methods for treating and preventing endoplasmic reticulum (ER) stress-mediated kidney diseases” (Washington University, priority 2018, dated 2021)", "key": {"Tg-C321R mice": {"test_system": "Tg-C321R mice", "assay": "K201 treatment of podocyte ER stress-induced NS mouse model (urinary calpain, albuminuria, BUN)", "assay_type": "in vivo", "conditions": "for albuminuria: K201 12.5-15 mg/kg i.p.", "experimental": "Urinary calpain activity was measured by Calpain-Glo™ Protease Assay (Promega, Madison, Wis.). In brief, urines were incubated with calpain substrate (Succinyl-LLVY-aminoluciferin). Following cleavage of substrate by calpain, the substrate for luciferase (aminoluciferin) was released, allowing the luciferase reaction to occur and luminescence to be detected by Femtomaster FB12 Luminometer. The actual values of raw light units were normalized by urine Cr for each group.\n(§1) BUN was measured by using a QuantiChrom™ urea assay kit (DIUR-500) (BioAssay Systems, Hayward, Calif.).\nMouse urines were collected by manual restraint or using a metabolic cage. The mouse urines were centrifuged at 1800 g for 10 minutes to remove debris before being frozen at −70° C. Urinary Cr concentration was quantified by a QuantiChrom™ creatinine assay kit (DICT-500) (BioAssay Systems) and albuminuria was measured by a QuantiChrom™ BCG albumin assay kit (DIAG-250) (BioAssay Systems)."}, "procaspases 12 and 3": {"test_system": "procaspases 12 and 3", "assay": "Western blot of cleaved caspase 12 and caspase 3 in podocyte lysates", "assay_type": "cell-based, mouse", "conditions": "Tg-C321R podocytes", "experimental": "(§2) Mouse primary podocytes and isolated glomeruli were lysed by RIPA buffer (Cell signaling) containing protease inhibitor cocktail (Sigma-Aldrich) and phosphatase inhibitor tablets (Roche, Indianapolis, Ind.). The protein concentrations of cell and glomerular lysates were determined by Bio-Rad Protein assay (Hercules, Calif.) using BSA as a standard. Denatured proteins were separated on SDS-polyacrylamide gels and then transferred to polyvinylidene difluoride membranes (Thermo Scientific). The membranes were blocked with 5% non-fat milk for 1 h and then incubated overnight with primary antibodies. Following incubation, membranes were washed with 0.1% Tris-buffered saline/Tween buffer and incubated with the appropriate HRP-conjugated secondary antibodies. The proteins were then detected using ECLplus kit (GE, Pittsburgh, Pa.) and visualized in an x-ray developer. To ensure equal protein loading, the same blot was stripped with stripping buffer (25 mM glycine and 1% SDS, pH 2.0) and then incubated with an HRP-conjugated anti-mouse β-actin antibody. Protein band intensities were quantified using Image J software (NIH, Bethesda, Md.)."}, "[1]": {"test_system": "293T cells stably expressing SERCaMP", "assay": "SERCaMP secretion (GLuc luciferase) assay of ER calcium depletion induced by thapsigargin", "assay_type": "cell-based, human", "experimental": "FIG. 11A-FIG. 11B. SERCaMP secretion is specifically triggered by ER calcium depletion. 293T cells stably expressing (A) SERCaMP or (B) control GLuc-STOP were treated with 0.1 μM TG or DMSO, for varying durations. Luciferase activity was measured in the medium (mean±SD, n=3) and normalized to the respective baseline. **P<0.01 by t-test.\nRyR expression was next examined at the protein level. […] Since it has been shown that RyR2 isoform is present in the rabbit kidney cortex and its activity is modulated by phosphorylation of the channel, phosphorylation of RyR2 at Ser2808 was further examined. […] It has been shown that the carboxy-terminal sequence of an ER stress protein MANF (mesencephalic astrocyte-derived neurotrophic factor), ASARTDL (SEQ ID NO: 3), is sufficient to specifically confer ER calcium-depletion-dependent secretion. […] When human embryonic kidney (HEK) 293T cells stably expressing SERCaMP or control GLuc-STOP without the ASARTDL tag were treated with DMSO or 0.1 μM thapsigargin (TG), a SERCA inhibitor causing ER calcium depletion for 6 hours, SERCaMP secretion, as measured by luciferase activity in the cell culture medium, was increased in response to ER calcium depletion induced by TG (see e.g., FIG. 11A and FIG. 11B)."}, "Lamb2+/- mice": {"test_system": "Lamb2+/- mice", "assay": "K201 toxicity in control mice (kidney histology, BUN)", "assay_type": "in vivo, mouse", "conditions": "K201 4 weeks vs vehicle-treated control littermates", "experimental": "FIG. 13. […] HE staining of K201 or vehicle-injected kidneys at the end of treatment.\nas §1\nFor light microscopy, kidneys were fixed in 4% paraformaldehyde, dehydrated through graded ethanols, embedded in paraffin, sectioned at 4 μm, and stained with Hematoxylin & Eosin (H&E) by standard methods."}, "[2]": {"test_system": "Tg-C321R primary podocytes", "assay": "Cytosolic calcium levels measured by Fluo-4 AM", "assay_type": "cell-based, mouse", "experimental": "The cytosolic Ca^2+ levels were measured by Fluo-4 AM (Invitrogen). Primary podocytes of the indicated genotypes were plated on 6-well plates at 1×10^5 cells/well and stained with 2.5 μM Fluo-4 AM and 1 mM probenecid in the dark at 37° C. for 30 minutes. Then the cells were washed with PBS and kept in the dark for another 30 minutes to allow cleavage of intracellular AM esters. Fluorescence was measured by flow cytometer Calibur 3 (BD Biosciences, San Jose, Calif.) at the FACS core facility of Washington University School of Medicine. The results were analyzed by Cell Quest. For measuring intracellular Ca^2+ levels in primary podocytes treated with or without […] or MANF, cells were plated on 96-well plates at 0.8×10^4 cells per well and stained with Fluo-4 AM along with probenecid to enable high-throughput readout. Fluorescence was measured at excitation wavelength 485 nm and emission wavelength 528 nm by a fluorescent plate reader Synergy H1 (BioTek, Winooski, Vt.)."}, "primary podocytes": {"test_system": "primary podocytes", "assay": "MTT cell viability assay", "assay_type": "cell-based, mouse", "conditions": "1-5 μM of K201", "experimental": "The higher apoptotic rates in all groups were most likely due to the effect of DMSO.\nIsolated glomeruli from Tg-WT, Tg-C321R, and Lamb2^+/− mice at P27 were plated onto collagen type I-coated culture dishes, and cultured in 5% CO2 at 37° C. in DMEM (Gibco, NY):Ham's F-12 (Lonza, NY) (2:1) that contained 3T3-L1 supernatant, 5% heat-inactivated fetal bovine serum (Gibco), 1% Insulin-Transferrin-Selenium liquid media supplement (Gibco), and 100 U/ml penicillin-streptomycin (Gibco). After 3 days, cell colonies began to sprout around the glomeruli. […] Passage 0 podocytes from the indicated genotypes were used for RNA sequencing, and passages 1 and 2 podocytes for other in vitro studies."}, "[3]": {"test_system": "Tg-C321R primary podocytes", "assay": "Annexin V-FITC/PI flow cytometry of early apoptosis", "assay_type": "cell-based, mouse", "experimental": "Apoptotic cell death was measured by FITC Annexin V/PI apoptosis detection kit (BD Biosciences) according to the manufacturer's protocol. […] The untreated- and treated-podocytes were harvested, washed with cold PBS twice, resuspended in binding buffer, and stained with Annexin V-FITC and PI in dark at room temperature for 15 minutes. After incubation, binding buffer was added, and the podocytes were analyzed by flow cytometer Calibur 3 (BD Biosciences). Unstained cells, cells stained with FITC-Annexin V or PI alone were used as controls to set up compensation and quadrants in flow cytometry. The results were analyzed by Cell Quest program."}, "XBP1s and ATF4": {"test_system": "XBP1s and ATF4", "assay": "Western blot of XBP1s and ATF4 in podocyte lysates", "assay_type": "cell-based, mouse", "conditions": "MANF 5 μg/ml, 24 hours, Tg-C321R podocytes", "experimental": "as §2"}, "Umod C147W/+ mice": {"test_system": "Umod C147W/+ mice", "assay": "DOX-induced renal tubular MANF expression in ADTKD mouse model (BUN)", "assay_type": "in vivo", "conditions": "DOX-induced tubular MANF from 6 to 24 weeks of age, TETMANF/+, P8TA vs Umod C147W/+", "experimental": "as §1\nConditional renal tubular-specific MANF transgenic mice have been generated. TET-MANF mice were crossed with renal tubular-specific rtTA (Pax8-rtTA; P8TA) mice to generate bitransgenic TETMANF/+; P8TA mice, which were further bred to Umod C147W mice to generate Umod C147W/+; TETMANF/+; P8TA and Umod C147W/+; P8TA mice. Meanwhile, control Umod^+/+; TETMANF/+; P8TA and Umod^+/+; P8TA littermates were also generated. By administrating DOX, MANF expression was induced in renal tubules of Umod C147W/+; TETMANF/+; P8TA mice and control Umod^+/+; TETMANF/+; P8TA mice starting at 6 weeks of age until 24 weeks of age. Meanwhile, single transgenic mice including Umod C147W/+; P8TA and Umod^+/+; P8TA treated with DOX for the same duration were also included as controls."}, "RyR2": {"target": "T1, RyR2 (Mus musculus, UniProt E9Q401)", "T1 construct": "endogenous in cells; host or cells: mouse primary podocytes from Tg-WT and Tg-C321R mice at P27", "assay": "Western blot of p-RyR2 (S2808) and RyR in podocyte lysates", "assay_type": "cell-based", "conditions": "MANF 5 μg/ml, 24 hours, Tg-C321R podocytes"}, "CHOP": {"test_system": "CHOP", "assay": "Western blot of CHOP in podocyte lysates", "assay_type": "cell-based, mouse", "conditions": "MANF 5 μg/ml, 24 hours, Tg-C321R podocytes", "experimental": "as §2"}, "[4]": {"conditions": "recombinant MANF 24 h, Example 3"}}}
{"molecule": "COc1ccc2c(c1)CN(C(=O)CCN1CCC(Cc3ccccc3)CC1)CCS2", "note": "[K201, 4-[-3{1-(4-Benzyl)piperidinyl}propionyl]-7-methoxy-2,3,4,5-tetrahydro-1,4-benzothiazepine]", "values": [{"measurement": "albuminuria", "setting": "Tg-C321R mice; 3 weeks post-injection, vehicle 0.137±0.037", "value": "0.095±0.029", "unit": "g/mg Cr"}, {"measurement": "albuminuria", "setting": "Tg-C321R mice; 4 weeks post-injection, vehicle 0.142±0.022", "value": "0.098±0.016", "unit": "g/mg Cr"}, {"measurement": "Urinary calpain activity/Cr", "setting": "Tg-C321R mice; K201 12.5-15 mg/kg i.p. once daily vs 20% HBC, from 2 weeks to 4 weeks post-treatment", "value": "dramatically decreased"}, {"measurement": "kidney function as indicated by blood urea nitrogen (BUN)", "setting": "Tg-C321R mice; end of 4 weeks of injection, Tg-C321R mice", "value": "improved kidney function"}, {"measurement": "activation of procaspases 12 and 3", "setting": "procaspases 12 and 3; 5 μM K201, 24 hours", "value": "abolished"}, {"measurement": "TG-induced ER calcium depletion (SERCaMP GLuc activity in the medium)", "setting": "[1]; 0.1 μM TG + 1 μM K201, 6 hours", "value": "abrogate TG-induced ER calcium depletion"}, {"measurement": "kidney histology (HE staining)", "setting": "Lamb2+/- mice", "value": "no abnormality"}, {"measurement": "renal function as indicated by blood urea nitrogen (BUN)", "setting": "Lamb2+/- mice", "value": "no abnormality"}, {"measurement": "podocyte ER-to-cytosol calcium leak (cytosolic calcium, Fluo-4)", "setting": "[2]; 5 μM K201, 24 hours", "value": "markedly blocked"}, {"measurement": "cell viability (MTT)", "setting": "primary podocytes", "value": "non-toxic"}, {"measurement": "early apoptotic rate (Annexin V+/PI- cells)", "setting": "[3]; 5 μM K201, 24 hours, DMSO control 24.73±2.22%", "value": "15.23±2.84", "unit": "%"}]}
{"molecule": "C/C=C(/C)C(=O)O[C@H]1C(C)=C2[C@H]([C@@H]1OC(=O)CCCCCCC)[C@@](C)(OC(C)=O)C[C@H](OC(=O)CCC)[C@@]1(O)[C@H]2OC(=O)[C@@]1(C)O", "note": "[thapsigargin]", "values": [{"measurement": "SERCaMP secretion (luciferase activity in the cell culture medium)", "setting": "[1]; 0.1 μM thapsigargin vs DMSO, 6 hours", "value": "increased"}]}
{"molecule": "MANF: Recombinant human MANF from R&D Systems; 18 kDa soluble ER stress inducible secreted protein (protein, UniProt P55145 25-182, looked up) Mesencephalic …: LRPGDCEVCISYLGRFYQDLKDRDVTFSPATIENELIKFCREARGKENRLCYYIGATDDAATKIINEVSKPLAHHIPVEKICEKLKKKDSQICELKYDKQIDLSTVDLKKLRVKELKKILDDWGETCKGCAEKSDYIRKINELMPKYAPKAASARTDL", "values": [{"measurement": "XBP1s and ATF4 induction", "setting": "XBP1s and ATF4", "value": "inhibition"}, {"measurement": "active cleaved caspase 12", "setting": "procaspases 12 and 3; MANF 5 μg/ml, 24 hours", "value": "suppression"}, {"measurement": "kidney function (BUN levels)", "setting": "Umod C147W/+ mice", "value": "improved the kidney function"}, {"measurement": "phosphorylation of ER RyR2 (S2808)", "setting": "RyR2", "value": "reduced phosphorylation"}, {"measurement": "CHOP induction", "setting": "CHOP", "value": "abrogated"}, {"measurement": "cytosolic calcium levels (Fluo-4)", "setting": "[2]; MANF recombinant protein 5 μg/ml, 24 hours", "value": "significantly decreased"}, {"measurement": "early apoptotic rate (Annexin V+/PI-)", "setting": "[3]; MANF 5 μg/ml, 24 hours, untreated 17.18±0.77%", "value": "10.09±0.51", "unit": "%"}, {"measurement": "early apoptosis (Annexin V+/PI- podocytes), printed as after treatment", "setting": "[3]; [4]", "value": 17.27, "unit": "%"}, {"measurement": "early apoptosis (Annexin V+/PI- podocytes), printed as before treatment", "setting": "[3]; [4]", "value": 10.73, "unit": "%"}]}
